We go through five compounds from PMC8248901 (Journal of clinical haematology, 2021).

Molecules are shown by their SMILES. Where two headings read alike, the source gives them in different places.

For one data set, the target named is T1, p38γ (Homo sapiens, UniProt P53778).
T1 construct: human recombinant p38α, β, γ, or δ protein kinases (active full-length) were acquired from SignalChem; purchased SignalChem
T1 sequence (P53778 1-367): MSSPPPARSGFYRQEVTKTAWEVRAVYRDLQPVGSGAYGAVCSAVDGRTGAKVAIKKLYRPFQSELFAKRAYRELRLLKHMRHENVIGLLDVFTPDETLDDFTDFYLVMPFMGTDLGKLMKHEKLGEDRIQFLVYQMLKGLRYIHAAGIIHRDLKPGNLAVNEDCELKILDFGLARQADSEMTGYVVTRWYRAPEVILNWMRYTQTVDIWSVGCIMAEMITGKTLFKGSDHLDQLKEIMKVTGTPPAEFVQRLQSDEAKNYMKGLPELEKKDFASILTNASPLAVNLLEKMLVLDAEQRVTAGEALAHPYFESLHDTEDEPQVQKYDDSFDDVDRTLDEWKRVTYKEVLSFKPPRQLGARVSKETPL
The experiment in a line: In vitro kinase assay using ADP-Glo, p38γ. The data set is classed as biochemical. The note with it: for inhibition of p38γ kinase activity (in words): drugs targeting CDK9, Appendix A Figure 7. As to the method:
(§1) Therefore, we attempted to screen p38γ inhibitors from […] by performing an in vitro kinase assay using ADP-Glo as readout for activated p38 isoforms.
(§2) To identify p38γ inhibitors using in vitro kinase assay, a library of kinase inhibitors was screened. The library consists of 244 compounds on three plates (EMD Cat#539744, #539745 and #539746) that are mostly ATP mimics. […] For biochemical screening, in vitro kinase assays were performed using an ADP-Glo kit (Promega, Madison, WI) according to the manufacture’s protocol. […] Briefly, for in vitro assay experiments, human recombinant p38α, β, γ, or δ protein kinases (active full-length) were acquired from SignalChem, and the assay was performed followed protocols from the company. […] Then, ADP-Glo Reagent was incubated in the mixture at room temperature for 40 min, followed by incubation of Kinase Detection Reagent for another 30 min. IC50 values were determined using CalcuSyn software (Biosoft, Cambridge, United Kingdom).

The test system of a further data set is Hut78 cells. Nature of the data set: Combination treatment of FVP and niclosamide, MTS, CI by CompuSyn. The class given is cell-based. The note with it: 72 hours.
In a further data set the target is T2, p38α (Homo sapiens, UniProt Q16539).
T2 construct: human recombinant p38α, β, γ, or δ protein kinases (active full-length) were acquired from SignalChem; purchased SignalChem
T2 sequence (Q16539 whole entry): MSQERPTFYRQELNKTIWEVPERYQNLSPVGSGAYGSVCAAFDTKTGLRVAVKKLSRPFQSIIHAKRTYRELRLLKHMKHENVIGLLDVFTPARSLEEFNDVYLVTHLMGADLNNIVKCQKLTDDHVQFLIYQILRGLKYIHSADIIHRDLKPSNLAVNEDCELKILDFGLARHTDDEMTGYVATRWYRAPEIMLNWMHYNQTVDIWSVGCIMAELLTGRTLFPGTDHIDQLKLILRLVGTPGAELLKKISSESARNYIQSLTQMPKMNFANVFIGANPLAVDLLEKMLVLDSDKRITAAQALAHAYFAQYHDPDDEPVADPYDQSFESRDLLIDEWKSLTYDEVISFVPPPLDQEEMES
The experiment in a line: In vitro kinase assay using ADP-Glo, p38α. The data set is classed as biochemical. The note with it: cell-free. As to the method: as §1, §2
For orientation: ADP-Glo first removes unused ATP, then detects ADP through luciferase.

In the next data set the target is T3, p38δ (Homo sapiens, UniProt O15264).
T3 construct: human recombinant p38α, β, γ, or δ protein kinases (active full-length) were acquired from SignalChem; purchased SignalChem
T3 sequence (O15264 1-365): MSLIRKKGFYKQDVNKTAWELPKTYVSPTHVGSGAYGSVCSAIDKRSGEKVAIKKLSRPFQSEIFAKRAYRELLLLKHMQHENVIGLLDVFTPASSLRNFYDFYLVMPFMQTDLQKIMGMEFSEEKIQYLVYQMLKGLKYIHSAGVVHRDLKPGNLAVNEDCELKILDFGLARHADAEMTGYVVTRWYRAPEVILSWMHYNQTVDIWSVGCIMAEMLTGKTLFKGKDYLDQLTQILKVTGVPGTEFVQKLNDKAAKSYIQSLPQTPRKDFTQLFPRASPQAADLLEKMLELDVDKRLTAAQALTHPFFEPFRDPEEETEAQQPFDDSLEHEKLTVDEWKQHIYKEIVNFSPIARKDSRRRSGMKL
The experiment in a line: In vitro kinase assay using ADP-Glo, p38δ. The class given is biochemical. To be noted: cell-free. On the procedure:
as §1, §2

The test system of another data set is Hut78 CTCL cells. The experiment in a line: cells. To be noted: Homo sapiens. The data set is classed as cell-based. On the procedure: Cell viability was calculated by diluting cell suspensions 1:1 in 0.4% Trypan Blue solution (Sigma, St. Louis, MO) and counting the number of viable cells using a TC20™ automated cell counter (Bio-Rad, Irvine, CA) which automatically excludes the number of non-viable cells stained with trypan blue per total cells. CellTiterGlo Cell Viability Assay (Promega) method was used as described previously. All data points are an average of triplicate experiments.
CellTiterGlo Cell Viability Assay (Promega) was used to measure viability of Hut78 CTCL cells. […] using an automated BMG PHERAstar plate reader (BMG Labtech, Ortenberg, Germany). IC50 values were determined using CalcuSyn software. All experiments were repeated in three independent experiments and data represented are the average of triplicate experiments.

The test system of data set [1] is CTCL. The experiment in a line: Efficacy in CTCL (IC50s quoted in the discussion). The class given is cell-based.
In data set [2] the test system is relapsed or refractory mantle cell lymphoma (MCL) and diffuse large B-cell lymphoma (DLBCL). Also noted: method as in NCT00445341. To be noted: flavopiridol, ref NCT00445341, cited from earlier work.
Data set [3] has as its system lymphoma or multiple myeloma. Details: method as in NCT00112723. To be noted: flavopiridol, trial terminated (administratively complete); ref NCT00112723; cited from earlier work.
Data set [4] relates to previously treated chronic lymphocytic leukemia or lymphocytic lymphoma. Also noted: method as in NCT00058240. The note with it: ref NCT00058240, cited from earlier work.
Data set [5] deals with refractory metastatic pancreatic cancer. Also noted: method as in NCT00331682. The note with it: docetaxel followed by flavopiridol; ref NCT00331682; cited from earlier work.
The test system of data set [6] is advanced ovarian epithelial cancer or primary peritoneal cancer. Details: method as in NCT00083122. The note with it: cisplatin together with flavopiridol, ref NCT00083122, cited from earlier work.
Data set [7] relates to advanced stomach or gastro-esophageal junction cancer. Details: method as in NCT00991952. The note with it: irinotecan hydrochloride with or without alvocidib; ref NCT00991952; cited from earlier work.
Data set [8] deals with newly diagnosed acute myeloid leukemia. Details: method as in NCT00407966. To be noted: alvocidib together with cytarabine and mitoxantrone; ref NCT00407966; cited from earlier work.
Data set [9] has the same test system. Details: method as in NCT01349972. To be noted: alvocidib, cytarabine, and mitoxantrone hydrochloride; ref NCT01349972; cited from earlier work.
For data set [10] the test system is unchanged. Also noted: method as in NCT00795002. To be noted: ref NCT00795002, cited from earlier work.
The test system of data set [11] is relapsed or refractory acute myeloid leukemia. Details: method as in NCT00634244. To be noted: combination chemotherapy regimen, not given; ref NCT00634244; cited from earlier work.
Data set [12] has as its system CTCL. Details: method as in printed at the place. The note with it: authors' previous studies of F7, no ref printed at the place, read-out: IC50, efficacy in CTCL; cited from earlier work.
Setting [13] is: HuT78, read-out: Cytotoxicity IC50, Hut78 CTCL cells.
Setting [14] is: arm 1, alvocidib with cytarabine and mitoxantrone.
Where [15] appears, read: arm 2, alvocidib with cytarabine and mitoxantrone.

Consider `CN1CCC(c2c(O)cc(O)c3c(=O)cc(-c4ccccc4Cl)oc23)C1CO` (centres unmarked) [P276-00], for which the “inhibition of p38γ kinase activity (in words)” value against p38γ is listed as “inhibit p38γ kinase activity”.
As to `O=C(Nc1ccc([N+](=O)[O-])cc1Cl)c1cc(Cl)ccc1O` [niclosamide], the CI in the data set with Hut78 cells (FVP 60.0 nM + Nic 0.2 μM (200 nM)) is listed as 0.6; in the data set with Hut78 cells (FVP 240.0 nM + Nic 0.2 μM (200 nM)), 0.7.
`CN1CC[C@H](c2c(O)cc(O)c3c(=O)cc(-c4ccccc4Cl)oc23)[C@H](O)C1` [FVP, Flavopiridol]: the IC50 – broadly, the midpoint of a concentration-inhibition curve – is 1340 nM against p38α; 450 nM at p38δ; 94 nM in the data set on Hut78 CTCL cells (setting [13]); below 100 nM with Hut78 CTCL cells (HuT78, read-out: Cytotoxicity IC50, Hut78 cells, abstract); 120 nM in the data set with CTCL [1]. Moreover, the serious adverse events is 14/28 in data set [2] (patients affected/total); 1/16 in data set [4] (highest dose group); 11/42 in data set [4] (lower dose group); 9/9 in [5]; 23/45 in data set [6]; 6/13 in [7]. Moreover, the serious adverse events in [8] is recorded as 19/45; in data set [9], 53/114. The results for the partial response in data set [2] (patients responding/evaluated), in [3] and in data set [7] were 2/26, 6/43 partial response and 1/13, respectively. The complete response entry in [2] is listed as “no complete response”; in data set [6] (out of 45 patients), 1; in [9], 76/109; in [10] (setting [14]), 24/37; in [10] (setting [15]), 29/37. For the same compound, the ORR in data set [4] (flavopiridol) was 21/52. Further, the median overall survival in data set [5] is reported as 4.2 months. In addition, in [5], the “median time to disease progression” value was 8 weeks. The figures for the stable disease in data set [5] and in [7] were 3/9 and 4/13, respectively. In data set [6] (out of 45 patients), the partial responses is recorded as 8. Besides, in data set [6], the “Median OS” value was 17.5 months. Moreover, the “median time to progression” value in [6] is reported as 4.3 months. In addition, the Serious adverse event was 8/39 in data set [10] (setting [14]), 8/39 in data set [10] (setting [15]) and 36/36 in data set [11]. Moreover, the complete remission in data set [11] was 10/36.
With `O=c1c(O)c(-c2cc(O)c(O)c(O)c2)oc2cc(O)cc(O)c12` [Myricetin], the IC50 on p38γ (cell-free, ADP-Glo) was found to be 1600 nM; in the data set on Hut78 CTCL cells (setting [13]), 19200 nM. At p38δ, the “targets p38δ isoform (in words)” value is “targets three isoforms except p38δ”.
In the case of `Cc1ccc([N+](=O)[O-])cc1S(=O)(=O)N(C)/N=C/c1cnc2ccc(Br)cn12` [F7], on p38γ, the “inhibition of p38γ kinase activity (in words)” value is “inhibit p38γ kinase activity”. Also, in the data set on CTCL [12], the IC50 is 29 to 33 nM.
